Data: the CombiSolv-Exp solvation set (Vermeire and Green 2021)

Experiment: solvent given as SMILES

Oc1ccccc1Cl
solvation free energy, 298 K (in CC(C)CC(C)(C)C): -5.44 kcal/mol | solvation free energy, 298 K (in CCCCCC): -5.72 kcal/mol | solvation free energy, 298 K (in CCCCCCC): -5.71 kcal/mol | solvation free energy, 298 K (in CCCCCCCC): -5.67 kcal/mol | solvation free energy, 298 K (in CCCCCCCCCC): -5.63 kcal/mol | solvation free energy, 298 K (in Cc1ccc(C)cc1): -6.37 kcal/mol | solvation free energy, 298 K (in Cc1cccc(C)c1): -6.42 kcal/mol | solvation free energy, 298 K (in Cc1ccccc1C): -6.41 kcal/mol | solvation free energy, 298 K (in O): -4.56 kcal/mol

C=C1C=CC(C(C)C)CCC(C)=CCC1 (stereo not drawn)
solvation free energy, 298 K (in O): 0.14 kcal/mol

Nc1ccc(O)c2c1C(=O)c1ccccc1C2=O
solvation free energy, 298 K (in O): -9.53 kcal/mol

Cn1ccnc1
solvation free energy, 298 K (in O): -8.41 kcal/mol

CCCCCCCCN
solvation free energy, 298 K (in CCCCCCC): -6.96 kcal/mol | solvation free energy, 298 K (in O): -3.73 kcal/mol

COP(=S)(OC)Oc1ccc([N+](=O)[O-])cc1
solvation free energy, 298 K (in O): -7.19 kcal/mol

CCNc1nc(Cl)nc(NC(C)(C)C)n1
solvation free energy, 298 K (in O): -8.66 kcal/mol

COC(=O)c1ccc(I)cc1
solvation free energy, 298 K (in CN(C)C=O): -10.7 kcal/mol | solvation free energy, 298 K (in O): -5.09 kcal/mol

C=CCCCCCC
solvation free energy, 298 K (in CC#N): -3.98 kcal/mol | solvation free energy, 298 K (in CCC#N): -4.66 kcal/mol | solvation free energy, 298 K (in CCCC#N): -4.42 kcal/mol | solvation free energy, 298 K (in CCCCC(CC)COC(=O)CCCCC(=O)OCC(CC)CCCC): -4.72 kcal/mol | solvation free energy, 298 K (in CCCCCCC): -5.17 kcal/mol | solvation free energy, 298 K (in CCCCCCCCC=CCCCCCCCC(=O)OCC(COC(=O)CCCCCCCC=CCCCCCCCC)OC(=O)CCCCCCCC=CCCCCCCCC): -4.65 kcal/mol | solvation free energy, 298 K (in CCCCCCCCO): -4.58 kcal/mol | solvation free energy, 298 K (in CCCCOC(=O)c1ccccc1C(=O)OCCCC): -4.62 kcal/mol | solvation free energy, 298 K (in CCN1CCCC1=O): -4.36 kcal/mol | solvation free energy, 298 K (in CCN(CC)C(C)=O): -4.5 kcal/mol | solvation free energy, 298 K (in CCNC(C)=O): -4.23 kcal/mol | solvation free energy, 298 K (in CCNC=O): -3.97 kcal/mol | solvation free energy, 298 K (in CCOC(=O)c1ccccc1C(=O)OCC): -4.11 kcal/mol | solvation free energy, 298 K (in CN1CCCC1=O): -4.02 kcal/mol | solvation free energy, 298 K (in CN(C)C=O): -3.89 kcal/mol | solvation free energy, 298 K (in CNC=O): -3.6 kcal/mol | solvation free energy, 298 K (in CS(C)=O): -3.04 kcal/mol | solvation free energy, 298 K (in N#CCCCCC#N): -3.31 kcal/mol | solvation free energy, 298 K (in NC=O): -1.58 kcal/mol | solvation free energy, 298 K (in NCCO): -2.07 kcal/mol | solvation free energy, 298 K (in Nc1ccccc1): -3.82 kcal/mol | solvation free energy, 298 K (in O): 1.93 kcal/mol | solvation free energy, 298 K (in O=C1CCCO1): -3.53 kcal/mol | solvation free energy, 298 K (in O=CN1CCOCC1): -3.4 kcal/mol | solvation free energy, 298 K (in OCCO): -1.81 kcal/mol | solvation free energy, 298 K (in OCCOCCO): -2.55 kcal/mol | solvation free energy, 298 K (in OCCOCCOCCO): -2.78 kcal/mol

CCCCCCCCP(=O)(CCCCCCCC)CCCCCCCC
solvation free energy, 298 K (in O): -15.5 kcal/mol

C#CCCCC
solvation free energy, 298 K (in C1CCC2CCCCC2C1): -3.68 kcal/mol | solvation free energy, 298 K (in C1CCC(C2CCCCC2)CC1): -3.65 kcal/mol | solvation free energy, 298 K (in CN1CCCC1=O): -4.11 kcal/mol | solvation free energy, 298 K (in CN(C)C=O): -3.94 kcal/mol | solvation free energy, 298 K (in CS(C)=O): -3.55 kcal/mol | solvation free energy, 298 K (in N#CCCCCC#N): -3.32 kcal/mol | solvation free energy, 298 K (in NCCO): -2.4 kcal/mol | solvation free energy, 298 K (in O): 0.29 kcal/mol | solvation free energy, 298 K (in O=Cc1ccco1): -3.57 kcal/mol | solvation free energy, 298 K (in OCc1ccco1): -3.31 kcal/mol | solvation free energy, 298 K (in c1ccc2c(c1)CCCC2): -3.99 kcal/mol | solvation free energy, 298 K (in c1ccc(C2CCCCC2)cc1): -3.88 kcal/mol

Cc1cc(O)ccc1[N+](=O)[O-]
solvation free energy, 298 K (in CCCCOCCCC): -12.1 kcal/mol | solvation free energy, 298 K (in O): -9.89 kcal/mol

CCCCCOC(=O)CCC
solvation free energy, 298 K (in O): -2.55 kcal/mol

CC=CC=CC
solvation free energy, 298 K (in C=CCCCCCCCCCCCCCC): -3.86 kcal/mol | solvation free energy, 298 K (in O): 0.61 kcal/mol

Oc1ccc(-c2ccccc2)cc1
solvation free energy, 298 K (in CC(C)CC(C)(C)C): -9.58 kcal/mol | solvation free energy, 298 K (in CCCCOCCCC): -12.8 kcal/mol | solvation free energy, 298 K (in O): -8.89 kcal/mol

Clc1cc(Cl)cc(Cl)c1
solvation free energy, 298 K (in CCCCCC): -6.96 kcal/mol | solvation free energy, 298 K (in CCCCCCCCO): -6.62 kcal/mol | solvation free energy, 298 K (in O): -0.78 kcal/mol

C=C1CCC(C(C)C)c2cc(C)ccc21 (stereo not drawn)
solvation free energy, 298 K (in O): -1.08 kcal/mol

CCCCCCCCCC
solvation free energy, 298 K (in CCC(C)(C)OC): -6.77 kcal/mol | solvation free energy, 298 K (in CCC(C)=O): -6.01 kcal/mol | solvation free energy, 298 K (in CCCCCC): -6.85 kcal/mol | solvation free energy, 298 K (in CCCCCCCCCCCCCCCC): -6.34 kcal/mol | solvation free energy, 298 K (in CCO): -5.35 kcal/mol | solvation free energy, 298 K (in CCOC(=O)c1ccccc1C(=O)OCC): -5.13 kcal/mol | solvation free energy, 298 K (in CN1CCCC1=O): -4.92 kcal/mol | solvation free energy, 298 K (in CN(C)C=O): -4.94 kcal/mol | solvation free energy, 298 K (in COCCO): -4.75 kcal/mol | solvation free energy, 298 K (in Cc1ccc(C)cc1): -6.68 kcal/mol | solvation free energy, 298 K (in N#CCCCCC#N): -3.99 kcal/mol | solvation free energy, 298 K (in O): 3.18 kcal/mol | solvation free energy, 298 K (in O=CN1CCOCC1): -4.15 kcal/mol | solvation free energy, 298 K (in OCCO): -2.19 kcal/mol | solvation free energy, 298 K (in OCCOCCO): -3.2 kcal/mol | solvation free energy, 298 K (in OCCOCCOCCO): -3.33 kcal/mol | solvation free energy, 298 K (in OCCOCCOCCOCCO): -3.61 kcal/mol

CC(C)=CCCC(C)CCCC(C)CCCC(C)C (stereo not drawn)
solvation free energy, 298 K (in O): 3.72 kcal/mol
